Test results: PubChem BioAssay AID1259407 (Chemical Carcinogenesis Research Information System (CCRIS), 2018)
Calls of active or inactive are those of the source. No rule for the calls is given here.

System: CCRIS mutagenicity, Ames/micronucleus/aberration tests
Assay: CCRIS mutagenicity studies
[1] = Test System: AMES SALMONELLA TYPHIMURIUM, Strain/Indicator: TA98, Metabolic Activation: NONE, Method: STANDARD PLATE

## CCOc1ccc(NC(C)=O)cc1
End Point: IN VITRO MICRONUCLEUS, Test System: CHL/IU CELLS, Metabolic Activation: RAT, LIVER, S-9, PHENOBARBITAL AND 5,6-BENZOFLAVONE
  mutagenic call: inactive; negative
End Point: IN VITRO MICRONUCLEUS, Test System: RAT KIDNEY FIBROBLAST NRK-49F, Metabolic Activation: NONE
  mutagenic call: inactive; negative
Test System: AMES SALMONELLA TYPHIMURIUM, Strain/Indicator: TA98, Metabolic Activation: GUINEA PIG, LIVER, S-9, PCB, Method: PREINCUBATION
  mutagenic call: inactive; negative
Test System: AMES SALMONELLA TYPHIMURIUM, Strain/Indicator: TA98, Metabolic Activation: HAMSTER, LIVER, S-9, AROCLOR 1254, Method: STANDARD PLATE
  mutagenic call: inactive; negative
Test System: AMES SALMONELLA TYPHIMURIUM, Strain/Indicator: TA98, Metabolic Activation: HAMSTER, LIVER, S-9, PCB, Method: PREINCUBATION
  mutagenic call: inactive; negative
Test System: AMES SALMONELLA TYPHIMURIUM, Strain/Indicator: TA98, Metabolic Activation: MOUSE, LIVER, S-9, AROCLOR 1254, Method: STANDARD PLATE
  mutagenic call: inactive; negative
Test System: AMES SALMONELLA TYPHIMURIUM, Strain/Indicator: TA98, Metabolic Activation: MOUSE, LIVER, S-9, PCB, Method: PREINCUBATION
  mutagenic call: inactive; negative
Test System: AMES SALMONELLA TYPHIMURIUM, Strain/Indicator: TA98, Metabolic Activation: NONE, Method: PREINCUBATION
  mutagenic call: inactive; negative
[1]
  mutagenic call: inactive; negative
Test System: AMES SALMONELLA TYPHIMURIUM, Strain/Indicator: TA98, Metabolic Activation: RAT, LIVER, S-9, AROCLOR 1254, Method: STANDARD PLATE
  mutagenic call: inactive; negative
Test System: AMES SALMONELLA TYPHIMURIUM, Strain/Indicator: TA98, Metabolic Activation: RAT, LIVER, S-9, PCB, Method: PREINCUBATION
  mutagenic call: inactive; negative
Test System: AMES SALMONELLA TYPHIMURIUM, Strain/Indicator: TA100, Metabolic Activation: GUINEA PIG, LIVER, S-9, PCB, Method: PREINCUBATION
  mutagenic call: active; positive
Test System: AMES SALMONELLA TYPHIMURIUM, Strain/Indicator: TA100, Metabolic Activation: HAMSTER, LIVER, S-9, AROCLOR 1254, Method: STANDARD PLATE
  mutagenic call: active; positive
Test System: AMES SALMONELLA TYPHIMURIUM, Strain/Indicator: TA100, Metabolic Activation: HAMSTER, LIVER, S-9, KANECHLOR 400, Method: PREINCUBATION
  mutagenic call: active; positive
Test System: AMES SALMONELLA TYPHIMURIUM, Strain/Indicator: TA100, Metabolic Activation: HAMSTER, LIVER, S-9, PCB, Method: PREINCUBATION
  mutagenic call: active; positive
Test System: AMES SALMONELLA TYPHIMURIUM, Strain/Indicator: TA100, Metabolic Activation: HAMSTER, LIVER, S-9, Method: PREINCUBATION
  mutagenic call: inactive; negative
Test System: AMES SALMONELLA TYPHIMURIUM, Strain/Indicator: TA100, Metabolic Activation: MOUSE, LIVER, S-9, AROCLOR 1254, Method: STANDARD PLATE
  mutagenic call: inactive; negative
Test System: AMES SALMONELLA TYPHIMURIUM, Strain/Indicator: TA100, Metabolic Activation: MOUSE, LIVER, S-9, PCB, Method: PREINCUBATION
  mutagenic call: inactive; negative
Test System: AMES SALMONELLA TYPHIMURIUM, Strain/Indicator: TA100, Metabolic Activation: NONE, Method: PREINCUBATION
  mutagenic call: inactive; negative
Test System: AMES SALMONELLA TYPHIMURIUM, Strain/Indicator: TA100, Metabolic Activation: NONE, Method: STANDARD PLATE
  mutagenic call: inactive; negative
Test System: AMES SALMONELLA TYPHIMURIUM, Strain/Indicator: TA100, Metabolic Activation: RAT, LIVER, S-9, AROCLOR 1254, Method: STANDARD PLATE
  mutagenic call: inactive; negative
Test System: AMES SALMONELLA TYPHIMURIUM, Strain/Indicator: TA100, Metabolic Activation: RAT, LIVER, S-9, KANECHLOR 400, Method: PREINCUBATION
  mutagenic call: inactive; negative
Test System: AMES SALMONELLA TYPHIMURIUM, Strain/Indicator: TA100, Metabolic Activation: RAT, LIVER, S-9, PCB, Method: PREINCUBATION
  mutagenic call: inactive; negative
Test System: AMES SALMONELLA TYPHIMURIUM, Strain/Indicator: TA100, Metabolic Activation: RAT, LIVER, S-9, Method: PREINCUBATION
  mutagenic call: inactive; negative
Test System: AMES SALMONELLA TYPHIMURIUM, Strain/Indicator: TA1535, Metabolic Activation: HAMSTER, LIVER, S-9, AROCLOR 1254, Method: STANDARD PLATE
  mutagenic call: inactive; negative
Test System: AMES SALMONELLA TYPHIMURIUM, Strain/Indicator: TA1535, Metabolic Activation: MOUSE, LIVER, S-9, AROCLOR 1254, Method: STANDARD PLATE
  mutagenic call: inactive; negative
Test System: AMES SALMONELLA TYPHIMURIUM, Strain/Indicator: TA1535, Metabolic Activation: NONE, Method: STANDARD PLATE
  mutagenic call: inactive; negative
Test System: AMES SALMONELLA TYPHIMURIUM, Strain/Indicator: TA1535, Metabolic Activation: RAT, LIVER, S-9, AROCLOR 1254, Method: STANDARD PLATE
  mutagenic call: inactive; negative
Test System: AMES SALMONELLA TYPHIMURIUM, Strain/Indicator: TA1537, Metabolic Activation: HAMSTER, LIVER, S-9, AROCLOR 1254, Method: STANDARD PLATE
  mutagenic call: inactive; negative
Test System: AMES SALMONELLA TYPHIMURIUM, Strain/Indicator: TA1537, Metabolic Activation: MOUSE, LIVER, S-9, AROCLOR 1254, Method: STANDARD PLATE
  mutagenic call: inactive; negative
Test System: AMES SALMONELLA TYPHIMURIUM, Strain/Indicator: TA1537, Metabolic Activation: NONE, Method: STANDARD PLATE
  mutagenic call: inactive; negative
Test System: AMES SALMONELLA TYPHIMURIUM, Strain/Indicator: TA1537, Metabolic Activation: RAT, LIVER, S-9, AROCLOR 1254, Method: STANDARD PLATE
  mutagenic call: inactive; negative
Test System: AMES SALMONELLA TYPHIMURIUM, Strain/Indicator: TA1538, Metabolic Activation: HAMSTER, LIVER, S-9, AROCLOR 1254, Method: STANDARD PLATE
  mutagenic call: inactive; negative
Test System: AMES SALMONELLA TYPHIMURIUM, Strain/Indicator: TA1538, Metabolic Activation: MOUSE, LIVER, S-9, AROCLOR 1254, Method: STANDARD PLATE
  mutagenic call: inactive; negative
Test System: AMES SALMONELLA TYPHIMURIUM, Strain/Indicator: TA1538, Metabolic Activation: NONE, Method: STANDARD PLATE
  mutagenic call: inactive; negative
Test System: AMES SALMONELLA TYPHIMURIUM, Strain/Indicator: TA1538, Metabolic Activation: RAT, LIVER, S-9, AROCLOR 1254, Method: STANDARD PLATE
  mutagenic call: inactive; negative
Test System: CHINESE HAMSTER V-79, Strain/Indicator: V-79/6-THIOGUANINE, Metabolic Activation: HAMSTER, LIVER, S-9, AROCLOR 1254, Method: SUSPENSION/PLATE
  mutagenic call: active; positive
Test System: CHINESE HAMSTER V-79, Strain/Indicator: V-79/6-THIOGUANINE, Metabolic Activation: NONE, Method: SUSPENSION/PLATE
  mutagenic call: inactive; negative
Test System: CHINESE HAMSTER V-79, Strain/Indicator: V-79/6-THIOGUANINE, Metabolic Activation: RAT, LIVER, S-9, PHENOBARBITAL AND BETA-NAPHTHOFLAVONE, Method: SUSPENSION/PLATE
  mutagenic call: inactive; negative
Test System: E. COLI, Strain/Indicator: WP2 UVRA, Metabolic Activation: HAMSTER, LIVER, S-9, AROCLOR 1254, Method: STANDARD PLATE
  mutagenic call: inactive; negative
Test System: E. COLI, Strain/Indicator: WP2 UVRA, Metabolic Activation: HAMSTER, LIVER, S-9, Method: STANDARD PLATE
  mutagenic call: inactive; negative
Test System: E. COLI, Strain/Indicator: WP2 UVRA, Metabolic Activation: MOUSE, LIVER, S-9, AROCLOR 1254, Method: STANDARD PLATE
  mutagenic call: inactive; negative
Test System: E. COLI, Strain/Indicator: WP2 UVRA, Metabolic Activation: MOUSE, LIVER, S-9, Method: STANDARD PLATE
  mutagenic call: inactive; negative
Test System: E. COLI, Strain/Indicator: WP2 UVRA, Metabolic Activation: NONE, Method: STANDARD PLATE
  mutagenic call: inactive; negative
Test System: E. COLI, Strain/Indicator: WP2 UVRA, Metabolic Activation: RAT, LIVER, S-9, AROCLOR 1254, Method: STANDARD PLATE
  mutagenic call: inactive; negative
Test System: E. COLI, Strain/Indicator: WP2 UVRA, Metabolic Activation: RAT, LIVER, S-9, Method: STANDARD PLATE
  mutagenic call: inactive; negative

## Cn1cnc2ccc([N+](=O)[O-])cc21
[1]
  mutagenic call: active; positive
